Assay results reported in ChEMBL document CHEMBL1201862, “PubChem BioAssay data set” (2004).
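The compound was tested at five concentrations on cells cultured in 96-well plates, with a 48-hour exposure period. At the GI50, growth is halved.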 Calls of active or inactive are those of the source. Cut-off read from the data, not from the text of the source: active = GI50 up to about 1.1 µM and inactive = higher.

Assays:
Test in all cases: DTP human tumour cell line panel, 48 h
MDA-N = test system: MDA-N
BT-549 = test system: BT-549
KM12 = test system: KM12
TK-10 = test system: TK-10
PC-3 = test system: PC-3
HL-60 = test system: HL-60
UACC-257 = test system: UACC-257
U-251 = test system: U-251
MOLT-4 = test system: MOLT-4
EKVX = test system: EKVX
NCI-H460 = test system: NCI-H460
786-0 = test system: 786-0
UO-31 = test system: UO-31
IGROV-1 = test system: IGROV-1
A498 = test system: A498
SNB-19 = test system: SNB-19
M14 = test system: M14
SNB-78 = test system: SNB-78
M19-MEL = test system: M19-MEL
CAKI-1 = test system: CAKI-1
SK-OV-3 = test system: SK-OV-3
SN12C = test system: SN12C
NCI-H226 = test system: NCI-H226
KM-20L2 = test system: KM-20L2
HCT-15 = test system: HCT-15
NCI-H522 = test system: NCI-H522
A549 = test system: A549
RPMI-8226 = test system: RPMI-8226
XF498 = test system: XF498
UACC-62 = test system: UACC-62
OVCAR-3 = test system: OVCAR-3
SNB-75 = test system: SNB-75
SW-620 = test system: SW-620
DLD-1 = test system: DLD-1
HOP-92 = test system: HOP-92
NCI/ADR-RES = test system: NCI/ADR-RES
SF-539 = test system: SF-539
T47D = test system: T47D
ACHN = test system: ACHN
SK-MEL-5 = test system: SK-MEL-5
SK-MEL-2 = test system: SK-MEL-2
CCRF-CEM = test system: CCRF-CEM
SR = test system: SR
OVCAR-8 = test system: OVCAR-8
K562 = test system: K562
DMS-114 = test system: DMS-114
HCT-116 = test system: HCT-116
DU-145 = test system: DU-145
Malme-3M = test system: Malme-3M
SF-268 = test system: SF-268
DMS-273 = test system: DMS-273
NCI-H23 = test system: NCI-H23
MDA-MB-231 = test system: MDA-MB-231
SF-295 = test system: SF-295
HT-29 = test system: HT-29
HOP-62 = test system: HOP-62
OVCAR-4 = test system: OVCAR-4
LOX IMVI = test system: LOX IMVI
OVCAR-5 = test system: OVCAR-5
LXFL 529 = test system: LXFL 529
MCF7 = test system: MCF7
HCC 2998 = test system: HCC 2998
COLO 205 = test system: COLO 205
SK-MEL-28 = test system: SK-MEL-28
MDA-MB-435 = test system: MDA-MB-435
RXF 393 = test system: RXF 393
HOP-18 = test system: HOP-18
Hs-578T = test system: Hs-578T

Measured: GI50

C[S+]([O-])c1cc(=O)c2ccccc2s1 (stereo not drawn)
inactive: MDA-N 3.05 µM | BT-549 14.5 µM | KM12 12.6 µM | TK-10 6.68 µM | PC-3 15.5 µM | HL-60 1.99 µM | UACC-257 3.4 µM | U-251 12.8 µM | MOLT-4 2.05 µM | EKVX 5.71 µM | NCI-H460 14.9 µM | 786-0 2.82 µM | UO-31 11.9 µM | IGROV-1 17.5 µM | A498 11.5 µM | SNB-19 18.4 µM | M14 1.67 µM | SNB-78 7.52 µM | M19-MEL 6.03 µM | CAKI-1 3.09 µM | SK-OV-3 24.5 µM | SN12C 5.79 µM | NCI-H226 16.9 µM | KM-20L2 6.25 µM | NCI-H522 1.13 µM | A549 18.5 µM | RPMI-8226 2.9 µM | XF498 4.1 µM | UACC-62 7.31 µM | OVCAR-3 2.42 µM | SNB-75 11.4 µM | SW-620 1.91 µM | DLD-1 2.14 µM | HOP-92 2.94 µM | NCI/ADR-RES 16.7 µM | SF-539 9.12 µM | T47D 2.52 µM | ACHN 1.91 µM | SK-MEL-5 10.6 µM | SK-MEL-2 10.8 µM | CCRF-CEM 1.7 µM | SR 1.56 µM | OVCAR-8 3.6 µM | K562 1.82 µM | DMS-114 4.2 µM | HCT-116 2.55 µM | DU-145 18.7 µM | Malme-3M 2.3 µM | SF-268 10.2 µM | DMS-273 8.67 µM | NCI-H23 6.19 µM | MDA-MB-231 12.6 µM | SF-295 17 µM | HT-29 4.35 µM | HOP-62 27 µM | OVCAR-4 3.03 µM | LOX IMVI 3.78 µM | OVCAR-5 9.42 µM | LXFL 529 1.54 µM | MCF7 5.42 µM | HCC 2998 7.64 µM | COLO 205 2.32 µM | SK-MEL-28 4.2 µM | MDA-MB-435 5.14 µM | RXF 393 2.94 µM | HOP-18 10.3 µM | Hs-578T 25.4 µM
3.03 µM: HCT-15
